Laboratory results as given in ChEMBL document CHEMBL1124540, “S-(2-oxopentadecyl)-CoA, a nonhydrolyzable analogue of myristoyl-CoA, is a potent inhibitor of myristoyl-CoA:protein N-myristoyltransferase” (J Med Chem, 1989).

Experiments:
[1] = Michaelis-Menten constant against myristoyl CoA was determined in mouse; assay type: organism-based
[2] = Compound was tested for the competitive inhibition against mouse brain N-Myristoyltransferase; assay type: tissue-based

Km [1]: 0.4 µM
Ki [2]: 24 nM
SMILES: CCCCCCCCCCCCCC(=O)CSCCNC(=O)CCNC(=O)C(O)C(C)(C)COP(=O)(O)OP(=O)(O)OC[C@H]1O[C@@H](n2cnc3c(N)ncnc32)[C@H](O)[C@@H]1OP(=O)(O)O (some centres not stated)
